Laboratory results taken from EP4385508A1, “FURAN FATTY ACIDS FOR ENHANCING MUSCLE MASS” (Centre de Coopération Internationale en Recherche …, priority 2022, dated 2024).

Assays:
C57Bl6 mice = assay: Oral gavage supplementation in C57Bl6 mice: food intake, body weight, body composition (EchoMRI), muscle weight; assay type: in vivo; details: 3 and a half weeks
Method: Male C57Bl/6J wild-type mice were obtained from Janvier at 12 weeks of age and were randomly assigned to one of the two groups based on body weight. Mice were housed 2 per cage and maintained on a 12-hour light/dark cycle (lights on at 7:30 pm). Food and water were provided ad libitum. Enrichment (nesting cotton squares) was provided in each cage. Mice were treated once daily by oral gavage with vehicle (50% PEG-400, 0.5% Tween 80, and 49.5% distilled water) or FuFA-F2 (20 mg/kg). All animal experiments were performed according to European directives (86/609/CEE and 2010/63/CEE) and approved by the regional animal experimentation ethics committe: Région Languedoc-Roussillon (No36). Our institutional guidelines for the care and use of laboratory animals were observed. Our animal facility is approved by the Departmental Veterinary Services (No. E34-172-10, 2019/03/04) and the Ministry of Research (DUO No. 7053, 2020/02/26). according to the European Directive 210-63-EU, mice were observed daily for the general health status and mortality scoring.
To investigate in vivo the potential impact a furan-containing compound under the form of a triacylgycerol of FuFA-F2 on muscle characteristics, C57Bl6 mice were supplemented by oral gavage with vehicle or FuFA-F2 (20mg/kg) for 3 and a half weeks (Fig. 6A). […] However, fat mass was similar between the two groups (Fig. 6E).

Akt (Ser473) = assay: Akt phosphorylation by Western blot in C2C12 myotubes; assay type: cell-based, Mouse; details: FuFA-F2 together with insulin; 3-day pretreatment, 2 hours low-glucose, 30 minutes
Method: (§1) Mouse myoblasts of the C2C12 cell line (ATCC) were seeded at a plating density of 7000 cells/cm2 in 6-well plates. They were grown in DMEM high glucose (4.5g/l) supplemented with gentamycin (50 µg/mL), amphotericin (50 µg/mL), and fetal calf serum (10%). Terminal differentiation was induced at cell confluence by lowering the medium serum concentration (0.5%).
(§2) When indicated, FuFA-F2 was added to the culture medium at the indicated concentration. For the differentiation studies, FuFA-F2 was added at the confluence at the same time as the change in media condition. Three doses of FuFA-F2 were studied at a final concentration of 1, 10, or 50 µM. Human insulin was used at a concentration of 100 nM.
Protein levels were assessed by Western blotting. Total proteins were measured using the Bio-Rad protein assay (Hercules, CA, USA) according to the manufacturer's instructions. Total proteins were lysed in RIPA buffer (20mM Tris, 150mM NaCl, 1mM EDTA, 1% NP40, pH 7.5 + complete cocktail protease inhibitors + Pierce phosphatase inhibitors tablet). 40 µg of cell extracts were loaded and blotted onto a nitrocellulose membrane. The membranes were washed, blocked with 5% nonfat milk and incubated in primary antibody overnight at 4°C. […]

LC3-II/LC3-I = assay: Autophagic flux, conversion of LC3-I to LC3-II by Western blot in C2C12 myotubes; assay type: cell-based, Mouse; details: whatever the dose
Method: as §1, §2
Protein levels were assessed by Western blotting. Total proteins were measured using the Bio-Rad protein assay (Hercules, CA, USA) according to the manufacturer's instructions. […]
AMP activated protein kinase (AMPK) is a crucial cellular energy sensor protein and is activated when intracellular ATP level decreases to regulate autophagy initiation (Hardie et al., 2012, Nat Rev Mol Cell Bio, Vol. 13 (4) : 251-262). […] The autophagy-related signaling was further evaluated by measuring the MTORC1 mediated phosphorylation […] at Ser757 which disrupts the interaction between ULK1 and AMPK. […] Therefore, the autophagic flux was assessed by measuring the conversion of LC3-I to LC3-II, through lipidation.

[1] = 20mg/kg oral gavage once daily, triacylglycerol of FuFA-F2, vs vehicle
[2] = 20mg/kg oral gavage, vs vehicle

Question: With `CCCCCc1cc(C)c(CCCCCCCCC(=O)O)o1` [FuFA-F2] as the compound, how does the body weight (C57Bl6 mice; [1]) read?
Answer: significantly higher

Question: And the food intake (C57Bl6 mice; [1])?
Answer: ate more

Question: What about the “weight of the gastrocnemius” value (C57Bl6 mice; [2]) of the same compound?
Answer: significantly increased

Question: And the “weight of the quadriceps” value (C57Bl6 mice; [2])?
Answer: significantly increased

Question: What about the fat mass (C57Bl6 mice; EchoMRI, 20mg/kg oral gavage, between the two groups) of the same compound?
Answer: similar

Question: What about the lean mass (C57Bl6 mice; EchoMRI, 20mg/kg oral gavage, vs control mice) of the same compound?
Answer: greater

Question: What about the “insulin-induced phosphorylation of Akt” value (Akt (Ser473)) of the same compound?
Answer: did not alter

Question: What about the “ratio of LC3-II/LC3-I” value (LC3-II/LC3-I) of the same compound?
Answer: decreased
